According to patent publication US9062124B2, “GIP-based mixed agonists for treatment of metabolic disorders and obesity” (priority 2008, dated 2015):
Where a SMILES comes first, the peptide text is derived from it. Bridges are numbered along the chain shown (N, C = ends). [ ]: non-standard residue; d: D form. Aib = CC(C)(N)C(=O)O

Experiments:
Assay type in all cases: cell-based
GIP receptor = molecular target: T1, GIP receptor (Homo sapiens, UniProt P48546); experiment: cAMP synthesis functional assay (firefly luciferase reporter in HEK293 cells), GIP receptor; settings: Table 1; for GIP Receptor relative activity: relative to the native hormone of the indicated receptor; for EC50: GIP Receptor EC50, nM
T1 construct: expressed in transfected cells; host or cells: HEK293
T1 sequence (P48546 22-466): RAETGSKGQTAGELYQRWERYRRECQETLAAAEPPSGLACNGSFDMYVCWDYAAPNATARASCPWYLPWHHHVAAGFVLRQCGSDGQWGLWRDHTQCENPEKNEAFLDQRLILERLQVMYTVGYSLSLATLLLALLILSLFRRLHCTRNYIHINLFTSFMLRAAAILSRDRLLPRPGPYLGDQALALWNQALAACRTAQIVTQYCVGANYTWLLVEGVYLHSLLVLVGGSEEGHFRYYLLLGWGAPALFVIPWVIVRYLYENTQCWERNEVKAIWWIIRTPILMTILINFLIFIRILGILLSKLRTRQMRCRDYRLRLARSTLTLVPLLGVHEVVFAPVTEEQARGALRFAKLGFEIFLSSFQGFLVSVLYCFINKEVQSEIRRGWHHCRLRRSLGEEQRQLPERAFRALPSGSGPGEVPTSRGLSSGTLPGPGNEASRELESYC

[1] = tested on: glucagon receptor, GLP-1 receptor or GIP receptor; experiment: Agonist profile across receptors assigned from the cAMP reporter assay data; settings: assigned from the in vitro EC50 data of Tables 1-4
GLP-1 receptor = molecular target: T2, GLP-1 receptor (Homo sapiens, UniProt P43220); experiment: cAMP synthesis functional assay (firefly luciferase reporter in HEK293 cells), GLP-1 receptor; settings: Table 1; for GLP-1 Receptor relative activity: relative to the native hormone of the indicated receptor; for EC50: GLP-1 Receptor EC50, nM
T2 construct: expressed in transfected cells; host or cells: HEK293

glucagon receptor = molecular target: T3, glucagon receptor (Homo sapiens, UniProt P47871); experiment: cAMP synthesis functional assay (firefly luciferase reporter in HEK293 cells), glucagon receptor; settings: Table 1; for Glucagon Receptor relative activity: relative to the native hormone of the indicated receptor; for EC50: Glucagon Receptor EC50, nM
T3 construct: expressed in transfected cells; host or cells: HEK293
T3 sequence (P47871 26-477): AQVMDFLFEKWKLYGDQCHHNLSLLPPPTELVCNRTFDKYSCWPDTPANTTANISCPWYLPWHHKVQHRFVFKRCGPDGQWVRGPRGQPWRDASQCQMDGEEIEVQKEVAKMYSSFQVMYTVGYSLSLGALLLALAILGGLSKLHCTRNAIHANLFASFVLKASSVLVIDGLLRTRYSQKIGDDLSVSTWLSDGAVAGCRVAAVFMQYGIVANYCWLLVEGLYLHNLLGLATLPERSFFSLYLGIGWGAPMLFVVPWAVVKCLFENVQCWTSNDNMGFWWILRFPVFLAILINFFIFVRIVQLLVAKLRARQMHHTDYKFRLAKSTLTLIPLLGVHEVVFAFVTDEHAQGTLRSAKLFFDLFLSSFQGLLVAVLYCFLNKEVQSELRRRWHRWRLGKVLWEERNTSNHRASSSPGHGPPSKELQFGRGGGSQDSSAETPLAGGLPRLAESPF

T2 sequence (P43220 24-463, species assumed): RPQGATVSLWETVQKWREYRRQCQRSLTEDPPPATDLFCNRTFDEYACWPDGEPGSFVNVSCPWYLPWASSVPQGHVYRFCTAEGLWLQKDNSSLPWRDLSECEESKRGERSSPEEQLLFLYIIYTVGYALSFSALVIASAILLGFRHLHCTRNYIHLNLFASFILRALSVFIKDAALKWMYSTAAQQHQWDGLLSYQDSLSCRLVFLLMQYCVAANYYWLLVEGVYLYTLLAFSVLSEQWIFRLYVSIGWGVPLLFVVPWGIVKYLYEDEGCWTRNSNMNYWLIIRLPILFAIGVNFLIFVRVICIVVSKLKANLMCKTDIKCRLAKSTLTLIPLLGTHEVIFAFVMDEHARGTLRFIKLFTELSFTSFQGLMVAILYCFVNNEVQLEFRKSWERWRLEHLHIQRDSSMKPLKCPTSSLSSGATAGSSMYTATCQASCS

Row | Structure (SMILES) | GIP Receptor relative activity (GIP receptor) [%] | receptor activity profile (glucagon / GLP-1 / GIP agonism) [1] | GLP-1 Receptor relative activity (GLP-1 receptor) [%] | Glucagon Receptor relative activity (glucagon receptor) [%] | EC50 (GIP receptor) [nM] | EC50 (GLP-1 receptor) [nM] | EC50 (glucagon receptor) [nM]
1 | CC[C@H](C)[C@H](NC(=O)[C@H](CO)NC(=O)[C@H](Cc1ccc(O)cc1)NC(=O)[C@H](CC(=O)O)NC(=O)[C@H](CO)NC(=O)[C@@H](NC(=O)[C@H](Cc1ccccc1)NC(=O)[C@@H](NC(=O)CNC(=O)[C@H](CCC(N)=O)NC(=O)C(C)(C)NC(=O)[C@@H](N)Cc1ccc(O)cc1)[C@@H](C)O)[C@@H](C)O)C(=O)N[C@@H](Cc1ccc(O)cc1)C(=O)N[C@@H](CC(C)C)C(=O)N[C@@H](CC(=O)O)C(=O)N[C@H]1CCC(=O)NCCCC[C@@H](C(=O)N[C@@H](CCC(=O)O)C(=O)N[C@@H](Cc2ccccc2)C(=O)N[C@H](C(=O)N[C@@H](CS)C(=O)N[C@@H](Cc2c[nH]c3ccccc23)C(=O)N[C@@H](CC(C)C)C(=O)N[C@@H](CC(C)C)C(=O)N[C@@H](C)C(=O)NCC(N)=O)C(C)C)NC(=O)[C@H](C)NC(=O)[C@H](C)NC(=O)[C@H](CCC(N)=O)NC1=O [mt-169] (H-Y[Aib]QGTFTSDYSIYLDEQAAKEFVCWLLAG-NH2; lactam 16-20; N-terminus assumed) | 14.79 | exemplary GLP-1/GIP/glucagon triagonist peptides | 54.39 | 51.26 | – | – | –
2 | CC[C@H](C)[C@H](NC(=O)[C@H](CO)NC(=O)[C@H](Cc1ccc(O)cc1)NC(=O)[C@H](CC(=O)O)NC(=O)[C@H](CO)NC(=O)[C@@H](NC(=O)[C@H](Cc1ccccc1)NC(=O)[C@@H](NC(=O)CNC(=O)[C@H](CCC(=O)O)NC(=O)C(C)(C)NC(=O)[C@@H](N)Cc1ccc(O)cc1)[C@@H](C)O)[C@@H](C)O)C(=O)N[C@@H](Cc1ccc(O)cc1)C(=O)N[C@@H](CC(C)C)C(=O)N[C@@H](CC(=O)O)C(=O)N[C@H]1CCC(=O)NCCCC[C@@H](C(=O)N[C@@H](CCC(=O)O)C(=O)N[C@@H](Cc2ccccc2)C(=O)N[C@H](C(=O)N[C@@H](CC(N)=O)C(=O)N[C@@H](Cc2c[nH]c3ccccc23)C(=O)N[C@@H](CC(C)C)C(=O)N[C@@H](CC(C)C)C(=O)N[C@@H](C)C(=O)NCC(=O)NCC(=O)N2CCC[C@H]2C(=O)N[C@@H](CO)C(=O)N[C@@H](CO)C(=O)NCC(=O)N[C@@H](C)C(=O)N2CCC[C@H]2C(=O)N2CCC[C@H]2C(=O)N2CCC[C@H]2C(=O)N[C@@H](CO)C(=O)N[C@@H](CS)C(N)=O)C(C)C)NC(=O)[C@H](C)NC(=O)[C@H](C)NC(=O)[C@H](CCC(N)=O)NC1=O [mt-174] (H-Y[Aib]EGTFTSDYSIYLDEQAAKEFVNWLLAGGPSSGAPPPSC-NH2; lactam 16-20; N-terminus assumed) | 95.65 | exemplary GLP-1/GIP co-agonist peptides | 117.65 | 0.06 | – | – | –
3 | CC[C@H](C)[C@H](NC(=O)[C@H](CO)NC(=O)[C@H](Cc1ccc(O)cc1)NC(=O)[C@H](CC(=O)O)NC(=O)[C@H](CO)NC(=O)[C@@H](NC(=O)[C@H](Cc1ccccc1)NC(=O)[C@@H](NC(=O)CNC(=O)[C@H](CCC(N)=O)NC(=O)C(C)(C)NC(=O)[C@@H](N)Cc1ccc(O)cc1)[C@@H](C)O)[C@@H](C)CC)C(=O)N[C@@H](Cc1ccc(O)cc1)C(=O)N[C@@H](CC(C)C)C(=O)N[C@@H](CC(=O)O)C(=O)N[C@H]1CCC(=O)NCCCC[C@@H](C(=O)N[C@@H](CCC(=O)O)C(=O)N[C@@H](Cc2ccccc2)C(=O)N[C@H](C(=O)N[C@@H](CC(N)=O)C(=O)N[C@@H](Cc2c[nH]c3ccccc23)C(=O)N[C@@H](CC(C)C)C(=O)N[C@@H](CC(C)C)C(=O)N[C@@H](C)C(=O)NCC(=O)NCC(=O)N2CCC[C@H]2C(=O)N[C@@H](CO)C(=O)N[C@@H](CO)C(=O)NCC(=O)N[C@@H](C)C(=O)N2CCC[C@H]2C(=O)N2CCC[C@H]2C(=O)N2CCC[C@H]2C(=O)N[C@@H](CO)C(=O)N[C@@H](CS)C(N)=O)C(C)C)NC(=O)[C@H](C)NC(=O)[C@H](C)NC(=O)[C@H](CCC(N)=O)NC1=O [mt-176] | 40.00 | exemplary GIP/glucagon co-agonist peptides | 0.23 | 26.24 | – | – | –
4 | CC[C@H](C)[C@H](NC(=O)[C@H](CO)NC(=O)[C@H](Cc1ccc(O)cc1)NC(=O)[C@H](CC(=O)O)NC(=O)[C@H](CO)NC(=O)[C@@H](NC(=O)[C@H](Cc1ccccc1)NC(=O)[C@@H](NC(=O)CNC(=O)[C@H](CCC(N)=O)NC(=O)C(C)(C)NC(=O)[C@@H](N)Cc1ccc(O)cc1)[C@@H](C)O)[C@@H](C)CC)C(=O)N[C@@H](Cc1ccc(O)cc1)C(=O)N[C@@H](CC(C)C)C(=O)N[C@@H](CC(=O)O)C(=O)N[C@H]1CCC(=O)NCCCC[C@@H](C(=O)N[C@@H](CCC(=O)O)C(=O)N[C@@H](Cc2ccccc2)C(=O)N[C@H](C(=O)N[C@@H](CS)C(=O)N[C@@H](Cc2c[nH]c3ccccc23)C(=O)N[C@@H](CC(C)C)C(=O)N[C@@H](CC(C)C)C(=O)N[C@@H](C)C(=O)NCC(N)=O)C(C)C)NC(=O)[C@H](C)NC(=O)[C@H](C)NC(=O)[C@H](CCC(N)=O)NC1=O [mt-177] (H-Y[Aib]QGTFISDYSIYLDEQAAKEFVCWLLAG-NH2; lactam 16-20; N-terminus assumed) | 19.30 | exemplary GIP/glucagon co-agonist peptides | 0.10 | 38.95 | 0.114 | 21 | 0.095
5 | CC[C@H](C)[C@H](NC(=O)[C@H](CO)NC(=O)[C@H](Cc1ccc(O)cc1)NC(=O)[C@H](CC(=O)O)NC(=O)[C@H](CO)NC(=O)[C@@H](NC(=O)[C@H](Cc1ccccc1)NC(=O)[C@@H](NC(=O)CNC(=O)[C@H](CCC(N)=O)NC(=O)C(C)(C)NC(=O)[C@@H](N)Cc1ccc(O)cc1)[C@@H](C)O)[C@@H](C)O)C(=O)N[C@@H](Cc1ccc(O)cc1)C(=O)N[C@@H](CC(C)C)C(=O)N[C@@H](CC(=O)O)C(=O)N[C@@H](CCC(=O)O)C(=O)N[C@@H](CCC(=O)O)C(=O)N[C@@H](C)C(=O)N[C@H](C(=O)N[C@@H](CCCNC(=N)N)C(=O)N[C@@H](CC(C)C)C(=O)N[C@@H](Cc1ccccc1)C(=O)N[C@H](C(=O)N[C@@H](CC(N)=O)C(=O)N[C@@H](Cc1c[nH]c2ccccc12)C(=O)N[C@@H](CC(C)C)C(=O)N[C@@H](CC(C)C)C(=O)N[C@@H](C)C(=O)NCC(=O)NCC(=O)N1CCC[C@H]1C(=O)N[C@@H](CO)C(=O)N[C@@H](CO)C(=O)NCC(=O)N[C@@H](C)C(=O)N1CCC[C@H]1C(=O)N1CCC[C@H]1C(=O)N1CCC[C@H]1C(=O)N[C@@H](CO)C(N)=O)C(C)C)C(C)C [mt-201] (H-Y[Aib]QGTFTSDYSIYLDEEAVRLFVNWLLAGGPSSGAPPPS-NH2; N-terminus assumed) | 44.44 | exemplary GLP-1/GIP co-agonist peptides | 191.67 | 0.24 | – | – | –
6 | CC[C@H](C)[C@H](NC(=O)[C@H](CO)NC(=O)[C@H](Cc1ccc(O)cc1)NC(=O)[C@H](CC(=O)O)NC(=O)[C@H](CO)NC(=O)[C@@H](NC(=O)[C@H](Cc1ccccc1)NC(=O)[C@@H](NC(=O)CNC(=O)[C@H](CCC(=O)O)NC(=O)C(C)(C)NC(=O)[C@@H](N)Cc1ccc(O)cc1)[C@@H](C)O)[C@@H](C)O)C(=O)N[C@@H](Cc1ccc(O)cc1)C(=O)N[C@@H](CC(C)C)C(=O)N[C@@H](CC(=O)O)C(=O)N[C@H]1CCC(=O)NCCCC[C@@H](C(=O)N[C@@H](CCC(=O)O)C(=O)N[C@@H](Cc2ccccc2)C(=O)N[C@H](C(=O)N[C@@H](CC(N)=O)C(=O)N[C@@H](Cc2c[nH]c3ccccc23)C(=O)N[C@@H](CC(C)C)C(=O)N[C@@H](CC(C)C)C(=O)N[C@@H](C)C(=O)NCC(=O)N[C@@H](CCCNC(=N)N)C(=O)N2CCC[C@H]2C(=O)N[C@@H](CO)C(=O)N[C@@H](CO)C(=O)NCC(=O)N[C@@H](C)C(=O)N2CCC[C@H]2C(=O)N2CCC[C@H]2C(=O)N2CCC[C@H]2C(=O)N[C@@H](CO)C(=O)N[C@@H](CS)C(N)=O)C(C)C)NC(=O)[C@H](C)NC(=O)[C@H](C)NC(=O)[C@H](CCC(N)=O)NC1=O [mt-204] (H-Y[Aib]EGTFTSDYSIYLDEQAAKEFVNWLLAGRPSSGAPPPSC-NH2; lactam 16-20; N-terminus assumed) | 19.73 | exemplary GLP-1/GIP co-agonist peptides | 161.11 | 0.06 | 0.147 | 0.018 | 108
